Consider five compounds from US20150216867A1, “COMPOUNDS FOR USE IN GASTRIC COMPLICATION” (NOVARTIS AG, priority 2012, published 2015).

The test system of assay [1] is cultured primary DRG cells. The assay is described as follows: Dorsal root ganglia stimulation with acid: low pH (6.1) induced CGRP release. Particulars: read-out: IC50, block of increased CGRP release. The class given is cell-based. From the text:
c) Dorsal Root Ganglia Stimulation with Acid—Blockade of the Effect with GPR4 Antagonist Low pH (6.1) induces a significant Calcitonin Gene-Related Peptide (CGPR) release in cultured primary DRG cells.

Assay [2] has as its target T1, human GPR4 (Homo sapiens, UniProt P46093). The assay is described as follows: Cell-based assay for human GPR4 activity: pH-induced cAMP formation (HTRF) in HeLa cells. On the set-up: expressed in transfected cells. Particulars: HeLa cells stably expressing human GPR4, pH-induced cAMP formation. As for the experimental part: HeLa cells stably expressing human GPR4 were established by transfecting the cells with a construct containing the human GPR4 coding sequence. The cells were grown in Dulbecco's Modified Eagle Medium (DMEM)/HAM's tissue culture medium F12 (HAM's F12) supplemented with 10% fetal calf serum (FCS), 100 u/ml penicillin, 100 μg/ml streptomycin and 400 μg/ml G418 and 10 mM Hepes pH 8.0. pH-induced formation of cAMP was determined using the homogeneous time resolved fluorescence (HTRF) technology as provided by CisBio Inc. The cells were seeded in 384-well plates and cultured for 24 hours at 37° C., 5% CO2 before performing the assay. Medium was removed and 10 μl buffer A (Hepes buffered saline (HBS), 10 mM Hepes, pH 8, 2 mM 3-Isobutyl-1-methylxanthin (IBMX)) was added. For compound testing, buffer A with 2× concentrated compounds was used. Cells were incubated for 15 min at room temperature. 10 μl buffer B (HBS, 30 mM Hepes, specific pH) was added to reach the appropriate final pH for stimulation (see below) and incubation was continued for 15 min at room temperature.
HBS: 130 mM NaCl, 0.9 mM NaH2PO4, 5.4 mM KCl, 0.8 mM MgSO4, CaCl2 1.8 mM, 25 mM glucose, 10-30 mM Hepes. Adjustment of HBS buffers:
Compounds were diluted from fresh stock solutions at 10 mM in DMSO to 2 mM and then used for serial dilutions in DMSO.
A general note: cAMP levels reflect the balance of adenylyl cyclase and phosphodiesterase activity.

In assay [3] the target is T1, human GPR4. In words: Human GPR4 binding assay ([3H]4(example 39) radioligand, membranes of 300.19 cells). On the set-up: c-myc (N); expressed in transfected cells. As for the experimental part:
(§1) Cells were grown in T175 flasks to a density of about 1×10^6 cells/mL in growth medium. The cells were harvested by centrifugation (3000 rpm for 30 minutes at 4° C.) and the pellet resuspended in ice cold buffer A (20 mM HEPES pH 7.8, 10 mM EDTA, 100 mM NaCl, 1 tab/40 mL protease inhibitor complete). […] The homogenate was centrifuged at 18000 rpm for 50 min at 4° C. and the membrane protein pellet resuspended in cold buffer A using the Polytron (2×20 seconds). The protein concentration is determined using the Bio Rad Protein Assay and human IgG as standard. The volume of the membrane protein suspension is adjusted to a final concentration of about 2 mg protein/mL. The suspension is then once again homogenized (Polytron) on ice at 25000 rpm for 20 seconds before being aliquoted and stored at −80° C.
(§2) Radio Ligand Binding Assay: Serial dilutions of compounds (stock in 10 mM DMSO) are prepared by first diluting the compounds in DMSO followed by a 1:50 dilution into assay buffer (10 mM HEPES, pH 8.0, 100 mM NaCl, 5 mM MgCl2, 1 mM CaCl2, 0.5% fatty acid-free BSA, 0.05% Tween-20). […] The desired amount of membranes (20 μg/well) is diluted with assay buffer. […] 100 μL of the membrane-suspension is added and the plate stirred for 60 minutes. […] Finally the plate is counted for 2 min/well in a TopCount NXT instrument (Packard Instruments). The data are analyzed using the GraphPad Prism™ software.

Assay [4] deals with T1, human GPR4. The assay is described as follows: Human GPR4 binding assay with additional human serum albumin (4% HSA). On the set-up: c-myc (N); expressed in transfected cells. Particulars: binding assay with additional 4% human serum albumin. As for the experimental part:
as §1
as §2, with “software. […]” for “software.”

The subject of assay [5] is neutrophil recruitment into the BAL fluid. In words: Neutrophil infiltration into mouse BAL fluid, cigarette smoke exposure model. The class given is in vivo. The conditions noted are these: WT mice, cigarette smoke 2 weeks, 90 mg/kg po. As for the experimental part: e) Effect of GPR4 Antagonist on Neurophil Infiltration into Mouse BAL Fluid
The role of GPR4 on neutrophil recruitment was determined in the cigarette smoke exposure model. GPR4 WT (wild type) and KO (knockout) mice, and WT treated with the compounds of example No 41 and example No 40 (90 mg/kg po) were exposed to five cigarettes for 2 weeks. The mice were sacrificed 24 hours following last smoke exposure and bronchoalveolar lavage (BAL) was performed.
The following table summarizes the results obtained by the GPR4-mediated inhibition of neutrophil recruitment into the BAL fluid: […]

Structures are written as SMILES. Counter-ions that a name gives are not always drawn.

T1 sequence (P46093 whole entry): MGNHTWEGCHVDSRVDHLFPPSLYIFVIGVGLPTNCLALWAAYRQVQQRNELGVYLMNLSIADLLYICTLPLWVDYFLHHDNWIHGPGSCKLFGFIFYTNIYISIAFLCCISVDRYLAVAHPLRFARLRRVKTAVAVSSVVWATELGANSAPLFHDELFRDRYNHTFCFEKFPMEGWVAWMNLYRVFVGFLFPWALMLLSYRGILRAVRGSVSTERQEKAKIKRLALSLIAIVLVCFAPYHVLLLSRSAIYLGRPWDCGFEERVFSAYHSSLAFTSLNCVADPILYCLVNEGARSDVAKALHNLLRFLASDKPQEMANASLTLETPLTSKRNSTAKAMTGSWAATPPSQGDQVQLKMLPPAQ

For the compound `CCc1nn2c(C)cc(C)nc2c1Cc1ccc(/C=C/CN2CCN(C[C@@H](O)CO)CC2)cc1` [Example 17, (R)-3-(4-{(E)-3-[4-(2-Ethyl-5,7-dimethyl-pyrazolo[1,5-a]pyrimidin-3-ylmethyl)-phenyl]-allyl}-piperazin-1-yl)-propane-1,2-diol dihydrochloride], in assay [1], the half-inhibitory concentration (IC50) was determined as 0.12 µM.

With `CCc1nn2c(C)cc(C)nc2c1Cc1ccc(/C=C/C(=O)N2CCNCC2)cc1` [Example 18, (E)-3-[4-(2-Ethyl-5,7-dimethyl-pyrazolo[1,5-a]pyrimidin-3-ylmethyl)-phenyl]-1-piperazin-1-yl-propenone hydrochloride], the concentration for half-maximal inhibition (IC50) against human GPR4 [2] is 0.043 µM; on human GPR4 [3] it was 0.081 µM; at human GPR4 [4], 0.067 µM.

For the compound `CCc1nn2c(C)cc(C)nc2c1Cc1ccc(-c2nnc(C3CCNCC3)o2)cc1` [Example 35, 2-Ethyl-5,7-dimethyl-3-[4-(5-piperidin-4-yl-[1,3,4]oxadiazol-2-yl)-benzyl]-pyrazolo[1,5-a]pyrimidine], the IC50 in assay [1] is 0.53 µM.

Regarding `CCc1nc2c(C)cc(C)nc2n1Cc1ccc(/C=C/CN2CCN(C(C)C)CC2)cc1` [Example 40, 2-Ethyl-3-{4-[(E)-3-(4-isopropyl-piperazin-1-yl)-propenyl]-benzyl}-5,7-dimethyl-3H-imidazo[4,5-b]pyridine], the recruitment of neutrophils result in assay [5] is on record as “significantly reduced”.

`CCc1nc2c(C)cc(C)nc2n1Cc1ccc(/C=C/CN2CCC(N3CCCCC3)CC2)cc1` [Example 41, 1′-{(E)-3-[4-(2-Ethyl-5,7-dimethyl-imidazo[4,5-b]pyridin-3-ylmethyl)-phenyl]-allyl}-[1,4′]bipiperidinyl dihydrochloride]: the recruitment of neutrophils entry in assay [5] is given as “significantly reduced”.

A word on the IC50: it is the concentration that inhibits the measured activity by half.
